Experimental data as given in PubChem BioAssay (NCI).
Several values for one entry are separate records, joined by “and”; a condition that tells them apart may be missing. Equal entries are not always repeated.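 Briefly, cells in 96-well plates were exposed to five compound concentrations for 48 h, and endpoints were estimated by linear interpolation. Here, GI50 denotes the concentration required for 50% inhibition of growth. TGI is the concentration that stops growth completely.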

Assays:
Assay in all cases: NCI tumour cell line growth inhibition, 48 h
SNB-75 CNS = tested on: SNB-75 CNS
UO-31 renal = tested on: UO-31 renal
SK-MEL-28 melanoma = tested on: SK-MEL-28 melanoma
OVCAR-5 ovarian = tested on: OVCAR-5 ovarian
MALME-3M melanoma = tested on: MALME-3M melanoma
UACC-62 melanoma = tested on: UACC-62 melanoma
NCI-H23 lung = tested on: NCI-H23 lung
HOP-92 NSCLC = tested on: HOP-92 NSCLC
BT-549 breast = tested on: BT-549 breast
MDA-MB-435 = tested on: MDA-MB-435

Structure (SMILES) | TGI (SNB-75 CNS) | TGI (UO-31 renal) | TGI (SK-MEL-28 melanoma) | TGI (OVCAR-5 ovarian) | TGI (MALME-3M melanoma) | TGI (UACC-62 melanoma) | TGI (NCI-H23 lung) | TGI (HOP-92 NSCLC) [µM] | GI50 (BT-549 breast) [µM] | TGI (BT-549 breast) [µM] | GI50 (MDA-MB-435) [µM] | TGI (MDA-MB-435) [µM] | GI50 (UO-31 renal) | GI50 (SK-MEL-28 melanoma) [µM] | GI50 (OVCAR-5 ovarian) [µM] | GI50 (MALME-3M melanoma) | GI50 (UACC-62 melanoma) [µM] | GI50 (NCI-H23 lung) | GI50 (HOP-92 NSCLC) | GI50 (SNB-75 CNS)
N#CCCCCCOCCOCCOCCOCCOCCCCCC#N | > 100 µM | > 100 µM | > 100 µM | > 100 µM | > 100 µM | > 100 µM | > 100 µM | – | – | – | – | – | – | – | – | – | – | – | – | –
CCCNCC(=O)O[C@]1(CC)C(=O)OCc2c1cc1n(c2=O)Cc2cc3ccccc3nc2-1 | 0.537 µM | – | 32.8 µM | 3.96 µM | 4.1 µM | 1.12 µM | 0.321 µM | 3.6 | – | – | – | – | – | – | – | – | – | – | – | –
O=C(NCc1cccnc1)C1COc2cc(-c3cc(=O)c4ccccc4o3)ccc2O1 (stereo not drawn) | 28.8 µM | > 100 µM | > 28.7 µM | > 100 µM | > 100 µM | > 100 µM | > 100 µM | > 100 | – | – | – | – | – | – | – | – | – | – | – | –
CC(=O)Nc1c(I)c(NC(C)=O)c(I)c(C(=O)O)c1I | – | > 100 µM | > 100 µM | > 100 µM | > 100 µM | > 100 µM | > 100 µM | > 100 | > 100 | > 100 | > 100 | > 100 | > 100 µM | > 100 | > 100 | > 100 µM | > 100 | > 100 µM | > 100 µM | –
O=C(OC1CCC2OOC1O2)c1ccc([N+](=O)[O-])cc1 (stereo not drawn) | > 100 µM | > 100 µM | > 100 µM | > 100 µM | > 100 µM | > 100 µM | > 100 µM | – | – | – | – | – | – | – | – | – | – | – | – | –
O=C1NC2C(=CC(O)C(O)C2O)c2cc3c(cc21)OCO3 (stereo not drawn) | 0.953 µM and 4.31 µM and 4 µM | 2.29 µM and 2.41 µM | 2.06 µM and 2.88 µM | 4.14 µM and 11.4 µM | 1.29 µM and 1.86 µM | 2.56 µM and 1.65 µM | 2 µM and 2.84 µM | – | – | – | – | 0.965 | 0.279 µM and 0.264 µM | 0.201 | 0.802 | 0.426 µM and 0.193 µM | 0.266 | 0.325 µM and 0.205 µM | 0.116 µM and 0.171 µM | 0.165 µM and 0.291 µM
Nc1nc(Cl)cc(NCC(O)CO)n1 (stereo not drawn) | > 100 µM | > 100 µM | > 100 µM | > 100 µM | > 100 µM | > 100 µM | > 100 µM | > 100 | – | – | – | – | – | – | – | – | – | – | – | –
COc1cc(C(=O)N2CCN(c3ccccc3)CC2)c2ccccc2n1 | – | > 83.7 µM | > 100 µM | > 100 µM | > 100 µM | > 100 µM | > 100 µM | 29.2 | 0.475 | > 100 | – | – | 0.0875 µM | > 100 | 0.586 | 0.0484 µM | 0.0482 | 0.225 µM | 1.47 µM | 0.0402 µM
CCOC(=O)C(N=C(c1ccccc1)c1ccccc1)N(C(=O)OC(C)(C)C)C(=O)OC(C)(C)C (stereo not drawn) | > 100 µM | > 100 µM | > 100 µM | > 100 µM | > 100 µM | > 100 µM | > 100 µM | 66.6 | – | – | – | – | – | – | – | – | – | – | – | –
Cc1cc(Nc2ncc3c(n2)N(C)C(=O)N(c2cc(NC(=O)c4cccc(C(F)(F)F)c4)ccc2C)C3)n(C)n1 | 0.0699 µM | 0.322 µM | 0.15 µM | – | 0.0489 µM | – | > 31.6 µM | – | 0.0628 | 0.321 | – | – | 0.0583 µM | 0.02 | 0.0539 | < 0.0124 µM | – | 0.0733 µM | – | 0.0217 µM
COc1ccc2c(c1)CC[C@@H]1[C@@H]2CC[C@]2(C)c3c(cc(C(=O)O)c4sccc34)C[C@@H]12 | 47.9 µM | 64.7 µM | 33.4 µM | 50.1 µM | 42.7 µM | 36.5 µM | 39.2 µM | – | 18.7 | 38.8 | 18.4 | 39.6 | 20.2 µM | 15.8 | 26 | 22.6 µM | 17.1 | 18.5 µM | – | 20.8 µM
COc1cc2c(cc1OC)CC(=O)Nc1cc(OC)c(OC)cc1CC2 | > 100 µM | > 100 µM | > 100 µM | > 100 µM | 99 µM | > 100 µM | > 100 µM | > 100 | – | – | – | – | – | – | – | – | – | – | – | –
COc1ccc(NC(=O)CC/C(CC(=O)c2ccco2)=N/NC(N)=S)cc1 | – | > 100 µM | – | > 100 µM | > 100 µM | > 100 µM | > 100 µM | > 100 | – | – | – | – | – | – | – | – | – | – | – | –
CC[C@@]1(O)C(=O)OCc2c1cc1n(c2=O)Cc2cc3cccc([N+](=O)[O-])c3nc2-1 | 7.85 µM | 6.91 µM | > 100 µM | 28.4 µM | > 100 µM | 1.28 µM | 4.19 µM | 50.8 | – | – | – | – | 1.17 µM | 43.9 | 1.55 | 4.35 µM | 0.299 | 0.486 µM | 8.45 µM | 0.879 µM
COc1ccc(Cn2cc3c(c2-c2ccccc2)CCc2cnoc2-3)cc1OC | 5.26 µM | > 100 µM | > 100 µM | > 100 µM | – | > 100 µM | > 100 µM | > 100 | – | – | 0.244 | 0.864 | 2.24 µM | 26.3 | 6.2 | – | 0.581 | 1.46 µM | 1.98 µM | 0.669 µM
CC1(Br)CC2OC3(Br)C=CC(C)(O)C2(CC1=O)C3(C)C (stereo not drawn) | > 100 µM | > 100 µM | > 100 µM | > 100 µM | > 100 µM | > 100 µM | > 100 µM | > 100 | – | – | – | – | – | – | – | – | – | – | – | –
COc1ccc2cc(C(=O)/C=C/c3ccc(N(C)C)cc3)ccc2c1 | > 100 µM | > 100 µM | > 100 µM | – | > 100 µM | > 100 µM | > 100 µM | > 100 | 39.5 | > 100 | 93.1 | > 100 | > 100 µM | > 100 | – | > 100 µM | > 100 | 41.6 µM | > 100 µM | > 100 µM
CONC(C)=O | > 100 µM | > 100 µM | > 100 µM | > 100 µM | > 100 µM | > 100 µM | > 100 µM | – | – | > 100 | – | > 100 | – | – | – | – | – | – | – | –
